This note sets out measurements from PMC7876696 (ACS Omega, 2021).

The target in the assay is T1, Hup (histone-like DNA-binding protein of H. pylori) (Helicobacter pylori, UniProt O25506).
T1 sequence (O25506 1-94): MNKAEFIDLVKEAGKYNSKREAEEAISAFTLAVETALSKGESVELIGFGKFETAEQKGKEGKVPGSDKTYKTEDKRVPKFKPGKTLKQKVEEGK
Put plainly: ligand-observed 1H NMR titration.

`O=C(O[C@@H]1Cc2c(O)cc(O)cc2O[C@@H]1c1cc(O)c(O)c(O)c1)c1cc(O)c(O)c(O)c1` [EGCG] showed a Kd of 3.29 ± 0.42 µM.
